Patent publication US11466005B2, “Tricyclic compounds” (JACOBIO PHARMACEUTICALS CO., LTD., priority 2018, dated 2022)

How the values were obtained:
BRD4(BD1) = BRD4(BD1) (Homo sapiens (Human), UniProt O60885); test: BRD4(BD1) biochemical binding assay (HTRF); conditions: biotinylated H4 derived acetylated peptide
Protocol: 1. BRD4(BD1) Binding Assays
The BRD4(BD1) biochemical binding assay was performed by Sundia MediTech Co. Ltd. in 384-well white plate (OptiPlate-384, PerkinElmer) using HTRF technology.
Briefly, 20 nL of compounds were transferred to the 384-well plate by Echo® 550 liquid handler (Labcyte, USA), then 5 μL of BRD4(BD1) (Reaction Biology Company, RD-11-157) solution or the assay buffer was added to each well. After incubating at RT for 15 min, 5 μL of the biotinylated H4 derived acetylated peptide (synthesized by GL Biochem (Shanghai) Ltd) and 10 μL of the detection solution (Cisbio Assay) were added to each well. After incubating for 1 h at RT, the HTRF signal was measure at 615 nm and 665 nm using the EnVision Multilabel Plate Reader (PerkinElmer, USA). Results were analyzed with a two-wavelength signal ratio: intensity (665 nm)/intensity (615 nm). The inhibition percentage in the presence of the compound was calculated according to the equation, Percent inhibition=(Max−Signal)/(Max−Min)*100%. Fit the data in GraphPad Prism V5.0 software (San Diego, Calif.) to obtain IC50 values with nonlinear regression analysis using equation, Y=Bottom+(Top−Bottom)/(1+10^((Log IC50−X)×HillSlope), where Y stands for inhibition percentage and X stands for compound concentration.

MV-4-11 cells = test: MV-4-11 cell proliferation assay (MTS); format: cell-based; conditions: Homo sapiens, MV4-11, 72 h, 3 days culture
Protocol: 2. Cell Proliferation Assay
MV-4-11 cell proliferation analysis was conducted by the MIS (3-(4,5-dimethylthiazol-2-yl)-5-(3-carboxymethoxyphenyl)-2-(4-sulfophenyl)-2H-tetrazolium, inner salt) assay. Briefly, MV-4-11 cells will be cultured in IMDM (Iscove's Modified Dubecco's Medium) medium supplemented with 10% (v/v) FBS (fetal bovine serum), under the temperature of 37° C., […] and 95% humidity. The cells will be harvested respectively during the logarithmic growth period and counted with hemocytometer. The cell viability is over […] by trypan blue exclusion. Adjust MV-4-11 cells concentrations to 1.2×10^5 cells/mL with complete medium. Add 100 μL cell suspensions to 96-well plates (triplicates for each cell concentration), the final cell densities are 1.2×10^4 cells/well. The next day, dissolve the test compound with DMSO as stock solution. Dispense 5 μL of the stock solution in 1 mL culture media and add 25 μL drug media into 96-well plates. After serially diluting with culture media, the final concentration of the compound will be 0, 0.03, 0.1, 0.3, 1, 3, 10, 30, 100 nM. The plates will be cultured for 3 days, then measured by means of MTS assay. Add PMS (phenazinium methosulfate) solution to MITS solution (1:20) immediately before addition to the culture plate containing cells. Pipet 20 μL of the combined MTS/PMS Solution into each well of the 96 well assay plate containing 100 μL of cells in culture medium. Incubate the plate for 1-4 hours at 37° C. in a humidified, 5% CO2 atmosphere. Record the absorbance at 490 nm using a microplate spectrophotometer (Envision®, PeikinElmer). Fit the data using GraphPad 5.0 and obtain IC50 values.

SMILES	IC50 (BRD4(BD1)) [nM]	IC50 (MV-4-11 cells) [nM]
Cc1cccnc1C(CCC(F)(F)F)n1c2cc(-c3c(C)nnn3C)cnc2c2c1c(C(C)(C)O)nn2C (stereo not drawn) [Compound 11, 2-(6-(1,4-dimethyl-1H-1,2,3-triazol-5-yl)-1-methyl-4-(4,4,4-trifluoro-1-(3-methylpyridin-2-yl)butyl)-1,4-dihydropyrazolo[3′,4′:4,5]pyrrolo[3,2-b]pyridin-3-yl)propan-2-ol]	1.3	7.66
Cc1nc(C(C2CCOCC2)n2c3cc(-c4c(C)nnn4C)cnc3c3c2c(C(C)(C)O)nn3C)co1 (stereo not drawn) [Compound 12, 2-(6-(1,4-Dimethyl-1H-1,2,3-triazol-5-yl)-1-methyl-4-((2-methyloxazol-4-yl)(tetrahydro-2H-pyran-4-yl)methyl)-1,4-dihydropyrazolo[3′,4′:4,5]pyrrolo[3,2-b]pyridin-3-yl)propan-2-ol]	1.6	10.5
Cc1nnn(C)c1-c1cnc2c3[nH]nc(C(C)(C)O)c3n([C@H](c3ncccc3F)C3CCOCC3)c2c1 [Compound 13, (S)-2-(6-(1,4-Dimethyl-1H-1,2,3-triazol-5-yl)-4-((3-fluoropyridin-2-yl)(tetrahydro-2H-pyran-4-yl)methyl)-1,4-dihydropyrazolo[3′,4′:4,5]pyrrolo[3,2-b]pyridin-3-yl)propan-2-ol]	0.4	1.15
Cc1nnn(C)c1-c1cnc2c3c(c(C(=O)N(C)C)nn3C)n(C(c3ccccc3)C3CCOCC3)c2c1 (stereo not drawn) [Compound 15, 6-(1,4-Dimethyl-1H-1,2,3-triazol-5-yl)-N,N,1-trimethyl-4-(phenyl(tetrahydro-2H-pyran-4-yl)methyl)-1,4-dihydropyrazolo[3′,4′:4,5]pyrrolo[3,2-b]pyridine-3-carboxamide]	0.61	25.1
Cc1nnn(C)c1-c1cnc2c3c(c(C(N)=O)nn3C)n(C(c3ccccc3)C3CCOCC3)c2c1 (stereo not drawn) [Compound 16, 6-(1,4-Dimethyl-1H-1,2,3-triazol-5-yl)-1-methyl-4-(phenyl(tetrahydro-2H-pyran-4-yl)methyl)-1,4-dihydropyrazolo[3′,4′:4,5]pyrrolo[3,2-b]pyridine-3-carboxamide]	0.3	3.6

Other lines, results leading:

IC50 (BRD4(BD1)) [nM]	IC50 (MV-4-11 cells) [nM]	SMILES
0.55	12.7	CNC(=O)c1nn(C)c2c3ncc(-c4c(C)nnn4C)cc3n(C(c3ccccc3)C3CCOCC3)c12 (stereo not drawn) [Compound 17, 6-(1,4-dimethyl-1H-1,2,3-triazol-5-yl)-N,1-dimethyl-4-(phenyl(tetrahydro-2H-pyran-4-yl)methyl)-1,4-dihydropyrazolo[3′,4′:4,5]pyrrolo[3,2-b]pyridine-3-carboxamide]
1.1	3.93	Cc1nnn(C)c1-c1cnc2c3c(c(C(C)(C)N)nn3C)n(C(c3ccccc3)C3CCOCC3)c2c1 (stereo not drawn) [Compound 18, 2-(6-(1,4-Dimethyl-1H-1,2,3-triazol-5-yl)-1-methyl-4-(phenyl(tetrahydro-2H-pyran-4-yl)methyl)-1,4-dihydropyrazolo[3′,4′:4,5]pyrrolo[3,2-b]pyridin-3-yl)propan-2-amine]
0.79	7.17	CCC(O)(CC)c1nn(C)c2c3ncc(-c4c(C)nnn4C)cc3n(C(c3ccccc3)C3CCOCC3)c12 (stereo not drawn) [Compound 19, 3-(6-(1,4-Dimethyl-1H-1,2,3-triazol-5-yl)-1-methyl-4-(phenyl(tetrahydro-2H-pyran-4-yl)methyl)-1,4-dihydropyrazolo[3′,4′:4,5]pyrrolo[3,2-b]pyridin-3-yl)pentan-3-ol]
0.68	0.91	COc1cccnc1C(C1CCOCC1)n1c2cc(-c3c(C)nnn3C)cnc2c2c1c(C(C)(C)O)nn2C (stereo not drawn) [Compound 26, 2-(6-(1,4-Dimethyl-1H-1,2,3-triazol-5-yl)-4-((3-methoxypyridin-2-yl)(tetrahydro-2H-pyran-4-yl)methyl)-1-methyl-1,4-dihydropyrazolo[3′,4′:4,5]pyrrolo[3,2-b]pyridin-3-yl)propan-2-ol]
